Among the data in ChEMBL document CHEMBL1137887, “Application of the Stille coupling reaction to the synthesis of C2-substituted endo-exo unsaturated pyrrolo[2,1-c][1,4]benzodiazepines (PBDs)” (2004) are GI50 values, retold here.

The assay concerns Panel NCI-60 (60 carcinoma cell lines). The assay is described as follows: In vitro mean of concentrations that inhibits cell growth across 60 cell lines of the NCI panel after incubation for 48 hr at 37 degree C was measured using SRB assay. Type of assay: functional. As to conditions: Homo sapiens.

As a reminder, the GI50 is the concentration at which growth is held to half of that of the control. Low readings indicate greater sensitivity of the cells, high ones lower sensitivity of the cells. For the compound `COc1cc2c(cc1OC)C(=O)N1C=C(C#Cc3ccccc3)C[C@H]1C=N2`, the GI50 is less than 0.01 µM. `COc1cc2c(cc1OC)C(=O)N1C=C(c3cccs3)C[C@H]1C=N2` registered a GI50 of 0.02 µM. With `COc1cc2c(cc1OC)C(=O)N1C=C(c3ccccc3)C[C@H]1C=N2` the figure was less than 0.01 µM. With `COc1cc2c(cc1OC)C(=O)N1C=C(c3ccco3)C[C@H]1C=N2` the figure was less than 0.01 µM; with `COc1cc2c(cc1OC)C(=O)N1CCC[C@H]1C=N2`, 2.39 µM. Compound `COc1cc2c(cc1OC)C(=O)N1C=CC[C@H]1C=N2` had a concentration for 50% growth inhibition (GI50) of 1.28 µM. For the compound `C=CC1=CN2C(=O)c3cc(OC)c(OC)cc3N=C[C@@H]2C1`, growth was halved (GI50) at 0.12 µM.
